Results published in patent US20180312473A1, “PHENAZINE DERIVATIVES AS ANTIMICROBIAL AGENTS” (priority 2015, published 2018).
Converted amounts (≈) assume the structure as drawn. Read-outs that look alike come from different tables or passages of the source.

Assays:
[1] = test system: MRSA-2 (methicillin-resistant Staphylococcus aureus clinical isolate); assay: MIC assay (broth microdilution, CLSI); format: cell-based; conditions: Staphylococcus aureus, MRSA, read-out: MIC, MRSA-2
[2] = test system: Staphylococcus epidermidis (ATCC 12228); assay: MIC assay (broth microdilution, CLSI); format: cell-based; conditions: Staphylococcus epidermidis, ATCC12228
[3] = test system: Staphylococcus epidermidis (ATCC 35984), MRSE; assay: MIC assay (broth microdilution, CLSI); format: cell-based; conditions: Staphylococcus epidermidis
[4] = test system: Enterococcus faecium (ATCC 700221), VRE; assay: MIC assay (broth microdilution, CLSI); format: cell-based
[5] = in vitro; format: cell-based; conditions: human
Method: (§1) The cytotoxicities of select compounds of the invention against HeLa cells were determined. HeLa cytotoxicity was assessed using the LDH release assay described by CYTOTOX96 (Promega G1780). HeLa cells were grown in Dulbecco's Modified Eagle Medium (DMEM; Gibco) supplemented with 10% Fetal Bovine Serum (FBS) at 37° C. with 5% CO2. […] Triton X-100 (at 2% v/v) was used as the positive control for maximum lactate dehydrogenate (LDH) activity in this assay (e.g., complete cell death), while “medium only” lanes served as negative control lanes (e.g., no cell death). DMSO was used as the vehicle control. […] Finally, Stop Solution (50 μL) was added to the incubating plates, and the absorbance was measured at 490 nm.
(§2) HeLa cytotoxicity was assessed using the LDH release assay described by CYTOTOX96 (Promega G1780). HeLa cells were grown in Dulbecco's Modified Eagle Medium (DMEM; Gibco) supplemented with 10% Fetal Bovine Serum (FBS) at 37° C. with 5% CO2. […] Triton X-100 (at 2% v/v) was used as the positive control for maximum lactate dehydrogenate (LDH) activity in this assay (e.g., complete cell death), while “medium only” lanes served as negative control lanes (e.g., no cell death). DMSO was used as our vehicle control. […] Finally, Stop Solution (50 μL) was added to the incubating plates and the absorbance was measured at 490 nm. Results are from three independent experiments (FIG. 19)

[6] = test system: HeLa cells; assay: in vitro; format: cell-based; conditions: human, 24 h
Method: as §1, §2

[7] = test system: human red blood cells; assay: Hemolysis assay with red blood cells; conditions: human, 1 h, 200 μM, pH 7.2
Outline: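 Hemolysis expressed as percent of the Triton X signal with DMSO as zero, using OD405 of supernatant. Compounds from DMSO stocks were incubated with triple-washed human erythrocytes for 1 hour at 37° C. before centrifugation; three independent experiments.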

[8] = test system: MRSA-2 planktonic cells and biofilms; assay: Calgary Biofilm Device (CBD) assay, MBC/MBEC; format: cell-based, Staphylococcus aureus; conditions: Staphylococcus aureus, MRSA
[9] = test system: MRSE (S. epidermidis ATCC 35984) planktonic cells and biofilms; assay: Calgary Biofilm Device (CBD) assay, MBC/MBEC; format: cell-based, Staphylococcus epidermidis; conditions: Staphylococcus epidermidis; Table 8; read-out: MRSE 35984 MBC
[10] = test system: VRE (E. faecium ATCC 700221) planktonic cells and biofilms; assay: Calgary Biofilm Device (CBD) assay, MBC/MBEC; format: cell-based, Enterococcus faecium; conditions: Enterococcus; Table 8; c lowest concentration tested; read-out: VRE 700221 MBC
[11] = test system: methicillin-resistant S. aureus (MRSA) strains; assay: MIC assay, values summarised over MRSA strains; format: cell-based, Staphylococcus aureus
[12] = test system: MRSA BAA-44; assay: MIC assay (broth microdilution, CLSI); conditions: Staphylococcus aureus, read-out: MIC, MRSA BAA-44
[13] = test system: A. baumannii 19606; assay: MIC assay (broth microdilution, CLSI); format: cell-based, Acinetobacter baumannii; conditions: Acinetobacter baumannii, 19606; read-out: A. baumannii 19606 MIC
[14] = test system: P. aeruginosa (PAO1); assay: MIC assay (broth microdilution, CLSI); format: cell-based; conditions: Pseudomonas aeruginosa, PAO1; read-out: PAO1 MIC
[15] = test system: K. pneumoniae 13883; assay: MIC assay (broth microdilution, CLSI); format: cell-based, Klebsiella pneumoniae; conditions: Klebsiella pneumoniae, 13883; read-out: K. pneumoniae 13883 MIC
[16] = test system: E. coli UAEC-1; assay: MIC assay (broth microdilution, CLSI); format: cell-based; conditions: Escherichia coli, UAEC1; read-out: E. coli UAEC-1 MIC
[17] = test system: MRSA-2; assay: MIC assay with Tiron or metal(II) cation co-treatment; format: cell-based, Staphylococcus aureus; conditions: for MIC: Staphylococcus aureus
[18] = test system: S. epidermidis 12228; assay: as above; format: cell-based, Staphylococcus epidermidis; conditions: for MIC: Staphylococcus epidermidis
[19] = test system: E. faecium 700221 (VRE); assay: as above; format: cell-based, Enterococcus faecium; conditions: for MIC: Enterococcus faecium, VRE
[20] = test system: MRSA BAA-1707; assay: MIC assay (broth microdilution, CLSI); conditions: Staphylococcus aureus, read-out: MIC, MRSA BAA-1707
[21] = Table 7, a midpoint of 2-fold range, b lowest concentration tested
[22] = Table 7, b lowest concentration tested, read-out: MIC, S. epidermidis 12228
[23] = Table 7, read-out: MIC, MRSE 35984
[24] = Table 7, b lowest concentration tested, read-out: MIC, VRE 700221
[25] = Table 8, a/b 2-/4-fold range in independent experiments, read-out: MRSA-2 MBC
[26] = MRSA-2, + loss, − increase of activity
[27] = S. epidermidis 12228, + loss, − increase of activity
[28] = E. faecium 700221, + loss, − increase of activity

## Oc1c(Br)cc(Cl)c2nc3ccccc3nc12 [Compound 7, 2-Bromo-4-chloro-1-hydroxyphenazine]
[1]; Table 2A
  MIC: 1.56 µM (≈ 0.483 µg/mL)
[1]; [21]
  MIC: 1.56 µM (≈ 0.483 µg/mL)
[2]; Table 2A, read-out: MIC, Staphylococcus epidermidis (ATCC 12228)
  MIC: 1.56 to 3.13 µM (≈ 0.483 to 0.969 µg/mL)
[2]; [22]
  MIC: 2.35 µM (≈ 0.727 µg/mL)
[3]; Table 2A, read-out: MIC, Staphylococcus epidermidis (ATCC 35984)
  MIC: 1.56 µM (≈ 0.483 µg/mL)
[3]; [23]
  MIC: 1.56 µM (≈ 0.483 µg/mL)
[4]; Enterococcus faecium, Table 2A, read-out: MIC, Enterococcus faecium (ATCC 700221)
  MIC: 6.25 µM (≈ 1.93 µg/mL)
[4]; [24]
  MIC: 6.25 µM (≈ 1.93 µg/mL)
[5]
  IC50 at 24 h: > 100 µM
[6]
  IC50: > 100 µM
[7]
  % Hemolysis (200 μM): ≤1%
  % Hemolysis at 200 μM: ≤1%
[8]; Table 4, read-out: MBC, MRSA-2
  MBC: 46.9 µM (≈ 14.5 µg/mL)
[8]; [25]
  MBC: 46.9 µM (≈ 14.5 µg/mL)
[9]
  MBC: 11.7 µM (≈ 3.62 µg/mL)
[10]
  MBC: 7.8 µM (≈ 2.41 µg/mL)
[11]
  growth inhibition activity against at least one MRSA strain: sub-micromolar
other
  melting point: 212 to 214 °C
[12]
  MIC: 1.56 µM (≈ 0.483 µg/mL)

## Oc1ccc(Br)c2nc3cc(Br)c(Br)cc3nc12 [Compound 13]
[1]; [21]
  MIC: 1.56 µM (≈ 0.675 µg/mL)
[2]; [22]
  MIC: 2.35 µM (≈ 1.02 µg/mL)
[3]; [23]
  MIC: 3.13 µM (≈ 1.35 µg/mL)
[4]; [24]
  MIC: 6.25 µM (≈ 2.71 µg/mL)
[7]
  % Hemolysis at 200 μM: ≤1%
[8]; [25]
  MBC: > 200 µM
[9]
  MBC: > 200 µM
[10]
  MBC: > 200 µM
[13]
  MIC: > 100 µM
[14]
  MIC: > 100 µM
[15]
  MIC: > 100 µM
[16]
  MIC: > 100 µM
[17]; [26]
  Fold Δ (Cu^2+): +8
  Fold Δ (Fe^2+): +2
  Fold Δ (Tiron): −125
[17]; MRSA-2, 200 μM copper(II), read-out: MIC with Cu^2+
  MIC: > 100 µM
[17]; MRSA-2, 200 μM iron(II), read-out: MIC with Fe^2+
  MIC: 25 µM
[17]; MRSA-2, 1 mM Tiron, read-out: MIC with Tiron
  MIC: 0.1 µM
[17]; MRSA-2, no additive (Table 9), read-out: MIC
  MIC: 12.5 µM
[18]; [27]
  Fold Δ (Cu^2+): +500
  Fold Δ (Tiron): n.a. (insignificant changes in MIC values (≤2-fold changes))
[18]; S. epidermidis 12228, 200 μM CuSO4, read-out: MIC with Cu^2+
  MIC: 50 µM
[18]; S. epidermidis 12228, 1 mM Tiron, read-out: MIC with Tiron
  MIC: 0.1 µM
[18]; S. epidermidis 12228, no additive, read-out: MIC
  MIC: 0.1 µM
[19]; [28]
  Fold Δ (Cu^2+): +64
  Fold Δ (Tiron): n.a. (insignificant changes in MIC values (≤2-fold changes))
[19]; E. faecium 700221, 200 μM CuSO4, read-out: MIC with Cu^2+
  MIC: 25 µM
[19]; E. faecium 700221, 1 mM Tiron, read-out: MIC with Tiron
  MIC: 0.39 µM
[19]; E. faecium 700221, no additive, read-out: MIC
  MIC: 0.39 µM
[20]
  MIC: 0.56 µM (≈ 0.242 µg/mL)
[12]
  MIC: 1.56 µM (≈ 0.675 µg/mL)
